Experiments:
[1] = molecular target: T1, human TRPM2 channels (Homo sapiens, UniProt O94759); assay: whole cell patch clamp, inhibition of TRPM2 channel current; type: cell-based; settings: HEK293 cells stably expressing human TRPM2, 500 μM ADPR
T1 construct: expressed in transfected cells
Experimental: The fused heterocyclic compound of the present invention has an inhibitory effect on the TRPM2 channel, and its pharmacological activity is measured using whole cell patch clamp technology, the corresponding steps are as follows: Incubating HEK293 cells stably expressing human TRPM2 channels in DMEM/F-12 medium containing 10% bovine serum, 50 units/mL of penicillin and […] of streptomycin under the condition of 5% CO2 and 37° C. The cells before testing are stored in the extracellular fluid (147 mM NaCl, 2 mM KCl, 1 mM MgCl2, 2 mM CaCl2, 10 mM HEPES, 13 mM glucose, pH 7.4). The electrode is filled with the electrode internal solution (147 mM NaCl, 0.05 mM EGTA, 1 mM MgCl2, 10 mM HEPES, 0.5 mM ADPR, pH=7.3), and the resistance is maintained at 3-5 M Ω. Administering ADPR into cells through electrodes, and detecting the ADPR concentration used to activate TRPM2 as 500 μM, when detecting a stable current, perfusing the corresponding concentration of fused heterocyclic compound II-1 into the extracellular fluid for at least 60 seconds. record the change in current magnitude using voltage ramp mode, changing the voltage from −100 mV to+100 mV within 500 ms, with a normal clamp voltage of 0 mV and a TRPM every 5 seconds; finally, replacing the extracellular fluid with a solution with pH=5.0 to block the TRPM2 current, the electrophysiological current test results obtained are shown in Table 1, and the electrophysiological current graph obtained is shown in FIG. 1. Similarly, administering corresponding concentrations of other fused heterocyclic compounds (II-2˜II-54, III-1˜III-11) into the extracellular fluid, taking electrophysiological tests using the same method, the results are shown in Table 1. The electrophysiological representative current graphs of some fused heterocyclic compounds (II-9, II-19, and II-36) inhibiting TRPM2 channel current are shown in FIG. 1.

[2] = tested on: dopaminergic neurons differentiated from iPSC derived from disseminated PD patients; assay: cell viability (cell titer glo) of iPSC differentiated dopaminergic neurons; type: cell-based, human; settings: II-23 0.6 μM, ACA 0.5 μM, from day 15 of culture; CTG kit
Experimental: Using normal and disseminated PD patient-derived induced pluripotent stem cells (iPSC), performing drug interventions using the TRPM2 inhibitors ACA and II-23 after they were induced and differentiated into mature dopaminergic neurons, the drug treating method is as follows: • a. Calculating the materials for the experiment, and starting preparing when the dopaminergic neurons are differentiated to the 8th day. The petri dishes should be treated with 33 μg/mL PDL overnight and washed with sterilized water. After drying, 2 μg/mL of laminin was added and incubated overnight. Both PDL and laminin can be recycled for reuse. • b. Digesting and collecting the differentiated cells with Accutase, and counting with a cell counting plate, and then diluting to 500,000/mL with maturation medium (Y-27632 should be added). Fluorescence confocal imaging was performed using a confocal dish inoculated with 2 mL/dish, and cell viability assays were performed using a 96-well plate inoculated with 100 μL/well. Taking this time point as the 10th day, changing to Y-27632-free medium on the 11th day, and changing the medium every two days. • c. When the cells were cultured to the 15th day, treating the drugs to a final concentration with the medium, the working concentration of ACA is 0.5 μM, and the working concentration of II-23 is 0.6 μM, and the drug-containing medium was changed every four days. […]

T1 sequence (O94759 whole entry): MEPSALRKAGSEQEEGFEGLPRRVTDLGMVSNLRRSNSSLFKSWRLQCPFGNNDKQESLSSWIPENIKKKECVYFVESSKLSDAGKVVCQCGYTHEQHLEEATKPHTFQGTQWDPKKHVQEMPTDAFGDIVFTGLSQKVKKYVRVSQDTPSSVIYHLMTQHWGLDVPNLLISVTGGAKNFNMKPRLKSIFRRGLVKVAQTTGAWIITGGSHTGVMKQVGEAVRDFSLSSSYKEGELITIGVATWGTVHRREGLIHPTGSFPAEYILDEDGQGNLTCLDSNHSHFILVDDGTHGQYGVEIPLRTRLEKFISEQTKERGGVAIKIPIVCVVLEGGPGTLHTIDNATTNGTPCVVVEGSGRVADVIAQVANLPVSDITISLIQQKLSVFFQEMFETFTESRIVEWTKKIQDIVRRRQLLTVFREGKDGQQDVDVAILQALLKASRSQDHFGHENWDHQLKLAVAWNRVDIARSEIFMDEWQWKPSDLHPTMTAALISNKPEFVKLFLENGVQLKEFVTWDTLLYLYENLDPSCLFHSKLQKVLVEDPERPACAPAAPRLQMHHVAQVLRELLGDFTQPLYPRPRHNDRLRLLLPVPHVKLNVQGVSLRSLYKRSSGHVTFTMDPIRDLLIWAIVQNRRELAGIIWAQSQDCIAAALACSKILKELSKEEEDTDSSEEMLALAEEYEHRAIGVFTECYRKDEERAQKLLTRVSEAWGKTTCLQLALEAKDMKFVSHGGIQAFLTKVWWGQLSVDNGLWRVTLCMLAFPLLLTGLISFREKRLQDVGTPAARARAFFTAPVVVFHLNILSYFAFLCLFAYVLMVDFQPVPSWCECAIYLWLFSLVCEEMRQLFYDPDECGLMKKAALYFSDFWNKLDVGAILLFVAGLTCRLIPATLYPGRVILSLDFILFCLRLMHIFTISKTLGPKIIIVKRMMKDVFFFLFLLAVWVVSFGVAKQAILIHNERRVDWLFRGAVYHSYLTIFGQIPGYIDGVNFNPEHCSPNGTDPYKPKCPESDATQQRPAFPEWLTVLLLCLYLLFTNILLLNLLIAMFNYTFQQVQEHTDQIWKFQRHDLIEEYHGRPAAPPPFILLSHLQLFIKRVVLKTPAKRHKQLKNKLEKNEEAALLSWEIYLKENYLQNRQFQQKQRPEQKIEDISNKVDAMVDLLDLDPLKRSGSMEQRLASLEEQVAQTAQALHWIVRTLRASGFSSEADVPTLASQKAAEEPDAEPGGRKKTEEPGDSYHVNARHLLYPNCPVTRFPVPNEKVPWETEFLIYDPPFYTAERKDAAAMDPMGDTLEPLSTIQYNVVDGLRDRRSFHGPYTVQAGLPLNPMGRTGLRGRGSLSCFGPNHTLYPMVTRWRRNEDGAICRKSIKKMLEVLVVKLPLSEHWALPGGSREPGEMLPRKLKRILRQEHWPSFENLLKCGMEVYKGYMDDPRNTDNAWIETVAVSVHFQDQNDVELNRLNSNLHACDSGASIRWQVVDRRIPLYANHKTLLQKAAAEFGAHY

CCN(CC)C(=O)c1cc(C(=O)c2ccccc2)n2cccc2c1 [II-23, 5-Benzoyl-N, N-diethylindolizine-7-formamide] was tested, and the IC50 [1] was 1 to 10 µM and the “cell viability of differentiated dopaminergic neurons derived from disseminated PD patients” value [2] was “restored”.

Reference: patent US20240228487A1, “FUSED HETEROCYCLIC COMPOUND AND APPLICATION THEREOF, PHARMACEUTICAL COMPOSITIONS CONTAINING SAME AND APPLICATION THEREOF” (ZHEJIANG UNIVERSITY, priority 2021, published 2024)
